Test results from publication PMC9927463, “Identification and Characterization of Corynaridin, a Novel Linaridin from Corynebacterium lactis” (Microbiology Spectrum, 2022).

What was measured:
[1] = test system: C. glutamicum ATCC 13032/pPB-pHin2^Cg; test: pHluorin assay for membrane damage; type: cell-based, Corynebacterium glutamicum; details: LMB pH 6.2, 30 min room temperature
Protocol: For detection of membrane damage, a pHluorin assay was conducted as described earlier ([34]). In particular, a 5-mL BHI overnight culture containing kanamycin (50 μg/mL) of the sensor strain C. glutamicum ATCC 13032/pPB-pHin2^Cg was harvested by centrifugation and resuspended to an OD600 of 3 in Listeria minimal buffer [LMB: 100 mM MOPS, 4.82 mM KH2PO4, 11.52 mM Na2HPO4, 1.7 mM MgSO4, 0.6 g/L (NH4)2SO4, 55 mM glucose (pH 6.2)]. Serial 2-fold dilutions of samples were prepared in black 96-well microtiter plates (Sarsted, Nümbrecht, Germany) with a final volume of 100 μL in each well. Subsequently, 100 μL of the sensor strain suspension was added and the plate was incubated at room temperature in the dark for 30 min. Then, pHluorin2 fluorescence was measured at 520 nm with excitation at the distinct maxima at 400 and 480 nm using an infinite M200 plate reader (Tecan, Männedorf, Switzerland).

[2] = test system: C. glutamicum ATCC 13032; test: time-kill kinetics; type: cell-based, Corynebacterium glutamicum
Protocol: Fresh overnight cultures of C. glutamicum ATCC 13032 were used to inoculate 5 mL 2× TY in glass tubes with a starting OD600 of 0.5 (i.e., ~10^7 CFU/mL). Samples of interest were added at the indicated concentrations prior to inoculation of the medium. Cultures were then incubated on a rotary shaker at 130 rpm for 24 h at 30°C. Samples were collected at the indicated time points, diluted (10^−1 to 10^−8), and plated on 2× TY agar. CFU per milliliter were determined after 24 to 48 h of incubation of the plates at 30°C by counting the colonies for the respective dilution.

[3] = test system: Staphylococcus aureus ATCC 29213; test: spot-on-lawn assay; type: cell-based; design: key: +: zone of inhibition; (+): diffuse zone of inhibition; −: no zone of inhibition; details: ten-microliter RPC fraction
Protocol: (§1) Antimicrobial activity was determined using a spot-on-lawn assay. Overnight cultures of the respective strains were inoculated with an OD600 of 0.01 into hand-warmed agar medium (16 g/L agar) and poured into sterile petri dishes. After solidification, surfaces of agar plates were air dried at room temperature under a sterile hood. Supernatants and purification fractions were serially diluted and spotted onto agar plates. Plates were incubated under the preferred conditions of the embedded bacteria until growth was visible. Volumetric bacteriocin activity (bacteriocin units [BU] per milliliter) was determined by dividing the last dilution factor resulting in a visible zone of inhibition by the volume spotted.

[4] = test system: Lactobacillus plantarum DSM 1055; test: spot-on-lawn assay; type: cell-based; design: key: +: zone of inhibition; (+): diffuse zone of inhibition; −: no zone of inhibition; details: ten-microliter RPC fraction
Protocol: as §1

[5] = test system: Corynebacterium ammoniagenes DSM 20306; test: spot-on-lawn assay; type: cell-based; design: key: +: zone of inhibition; (+): diffuse zone of inhibition; −: no zone of inhibition; details: ten-microliter RPC fraction
Protocol: as §1

[6] = test system: Corynebacterium striatum DSM 20668; test: spot-on-lawn assay; type: cell-based; design: key: +: zone of inhibition; (+): diffuse zone of inhibition; −: no zone of inhibition; details: ten-microliter RPC fraction
Protocol: as §1

[7] = test system: Pseudomonas fluorescens DSM 50090; test: spot-on-lawn assay; type: cell-based; design: key: +: zone of inhibition; (+): diffuse zone of inhibition; −: no zone of inhibition; details: ten-microliter RPC fraction
Protocol: as §1

[8] = test system: Listeria monocytogenes EGD-e; test: spot-on-lawn assay; type: cell-based; design: key: +: zone of inhibition; (+): diffuse zone of inhibition; −: no zone of inhibition; details: ten-microliter RPC fraction
Protocol: as §1

[9] = test system: Bacillus subtilis DSM 402; test: spot-on-lawn assay; type: cell-based; design: key: +: zone of inhibition; (+): diffuse zone of inhibition; −: no zone of inhibition; details: ten-microliter RPC fraction
Protocol: as §1

[10] = test system: Pediococcus acidilactici 347; test: spot-on-lawn assay; type: cell-based; design: key: +: zone of inhibition; (+): diffuse zone of inhibition; −: no zone of inhibition; details: ten-microliter RPC fraction
Protocol: as §1

[11] = test system: Lactococcus lactis IL1403; test: spot-on-lawn assay; type: cell-based; design: key: +: zone of inhibition; (+): diffuse zone of inhibition; −: no zone of inhibition; details: ten-microliter RPC fraction
Protocol: as §1

[12] = test system: Staphylococcus epidermidis DSM 3269; test: spot-on-lawn assay; type: cell-based; design: key: +: zone of inhibition; (+): diffuse zone of inhibition; −: no zone of inhibition; details: ten-microliter RPC fraction
Protocol: as §1

[13] = test system: Corynebacterium efficiens DSM 44549; test: spot-on-lawn assay; type: cell-based; design: key: +: zone of inhibition; (+): diffuse zone of inhibition; −: no zone of inhibition; details: ten-microliter RPC fraction
Protocol: as §1

[14] = test system: Corynebacterium xerosis DSM 20743; test: spot-on-lawn assay; type: cell-based; design: key: +: zone of inhibition; (+): diffuse zone of inhibition; −: no zone of inhibition; details: ten-microliter RPC fraction
Protocol: as §1

[15] = test system: Micrococcus luteus DSM 20030; test: spot-on-lawn assay; type: cell-based; design: key: +: zone of inhibition; (+): diffuse zone of inhibition; −: no zone of inhibition; details: ten-microliter RPC fraction
Protocol: as §1

[16] = test system: Corynebacterium lipophiloflavum DSM 44291; test: spot-on-lawn assay; type: cell-based; design: key: +: zone of inhibition; (+): diffuse zone of inhibition; −: no zone of inhibition; details: ten-microliter RPC fraction
Protocol: as §1

[17] = test system: Escherichia coli K-12 MG1655; test: spot-on-lawn assay; type: cell-based; design: key: +: zone of inhibition; (+): diffuse zone of inhibition; −: no zone of inhibition; details: ten-microliter RPC fraction
Protocol: as §1

[18] = test system: Corynebacterium amycolatum DSM 6922; test: spot-on-lawn assay; type: cell-based; design: key: +: zone of inhibition; (+): diffuse zone of inhibition; −: no zone of inhibition; details: ten-microliter RPC fraction
Protocol: as §1

[19] = test system: Corynebacterium casei DSM 44701; test: spot-on-lawn assay; type: cell-based; design: key: +: zone of inhibition; (+): diffuse zone of inhibition; −: no zone of inhibition; details: ten-microliter RPC fraction
Protocol: as §1

[20] = test system: C. glutamicum ATCC 13032; test: fluorescence microscopy of propidium iodide-stained bacteria; type: cell-based, Corynebacterium glutamicum; details: 4,000-BU/mL RPC fraction, 10 to 30 min incubation
Protocol: A fresh culture of C. glutamicum ATCC 13032 was washed once in phosphate-buffered saline (PBS), and bacteria were resuspended in saline (0.9% [wt/vol] NaCl) at an OD600 of 1. An 87.5-μL concentration of the cell suspension was mixed with nisin, cetyltrimethylammonium bromide (CTAB), H2O, or the RPC fraction containing corynaridin to the indicated concentrations and incubated for 10 to 30 min in the dark. Then, the bacteria were stained using 12.5 μL propidium iodide (25 μg/mL) (Invitrogen, Darmstadt, Germany) and again incubated for 15 min in the dark. Samples were imaged using a Axio Observer Z1 (Zeiss, Oberkochen, Germany) in bright-field and fluorescence mode with a filter set for propidium iodide (excitation at 575 to 625 nm, emission at 660 to 710 nm). Images were acquired with a 63× lens objective and analyzed using the Zen software (version 2.3 SP1; Zeiss).

[21] = target: proteinase K (Parengyodontium album, UniProt P06873); test: resistance to protease treatment; type: in vitro ADME
Sequence of proteinase K (P06873 106-384): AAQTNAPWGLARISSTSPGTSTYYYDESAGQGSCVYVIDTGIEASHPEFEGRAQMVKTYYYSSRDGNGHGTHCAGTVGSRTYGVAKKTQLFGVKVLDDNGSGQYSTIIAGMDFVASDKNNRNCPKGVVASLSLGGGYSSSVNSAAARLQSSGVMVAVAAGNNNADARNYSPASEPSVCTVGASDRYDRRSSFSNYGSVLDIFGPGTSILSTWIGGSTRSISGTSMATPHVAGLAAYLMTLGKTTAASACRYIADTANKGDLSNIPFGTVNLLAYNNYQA
Protocol: (§2) To assess the physicochemical properties of the purified compound, it was tested for resistance to protease and heat treatment (Fig. 3c and d). While a reduction of activity of the RPC fraction to 8,000 BU/mL (i.e., about 4-fold) was observed after incubation with trypsin or proteinase K, heat treatment at 80°C and 100°C for 10 min had no effect.

[22] = test system: Cutibacterium acnes DSM 16379; test: spot-on-lawn assay; type: cell-based; design: key to Activity, RPC fraction: +: zone of inhibition; (+): diffuse zone of inhibition; −: no zone of inhibition
Protocol: as §1

[23] = test system: Corynebacterium glutamicum ATCC 13032; test: spot-on-lawn assay; type: cell-based; design: key to Activity, RPC fraction: +: zone of inhibition; (+): diffuse zone of inhibition; −: no zone of inhibition
Protocol: as §1

[24] = test system: Listeria innocua LMG2785; test: spot-on-lawn assay; type: cell-based; design: key to Activity, RPC fraction: +: zone of inhibition; (+): diffuse zone of inhibition; −: no zone of inhibition
Protocol: as §1

[25] = test system: trypsin; type: in vitro ADME
Protocol: as §2

[26] = resistance to heat treatment; type: physicochemical; details: read-out spot-on-lawn, 10-μL sample
Protocol: as §2

[27] = test system: Micrococcus luteus; details: cited from earlier work
Source text: (§3) While extensive studies have been carried out on the structure and chemistry behind their modifications, comparably little is known about the biological functions of linaridins. […] So far, for none of the hitherto described linaridins receptors or mode of action have been prop ...

[28] = test system: Streptococcus pyogenes strain; details: cited from earlier work
Source text: as §3

CCCCCCCCCCCCCCCC[N+](C)(C)C [CTAB, cetyltrimethylammonium bromide]
change of pHluorin2 fluorescence ratio (excitation 400/480 nm) ([1]; positive controls): reduced fluorescence ratios

O=C(N[C@H](CO)[C@H](O)c1ccc([N+](=O)[O-])cc1)C(Cl)Cl [chloramphenicol, reference compound]
CFU per milliliter throughout the experiment ([2]; 6.5 μg/mL, 2x TY, 30°C, 24 h): stable levels of CFU per milliliter

corynaridin
Activity, RPC fraction [3]: − | Activity, RPC fraction [4]: − | Activity, RPC fraction [5]: + | Activity, RPC fraction [6]: + | Activity, RPC fraction [7]: − | Activity, RPC fraction [8]: − | Activity, RPC fraction [9]: − | Activity, RPC fraction [10]: − | Activity, RPC fraction [11]: + | Activity, RPC fraction [12]: − | Activity, RPC fraction [13]: + | Activity, RPC fraction [14]: + | Activity, RPC fraction [15]: + | Activity, RPC fraction [16]: + | Activity, RPC fraction [17]: − | Activity, RPC fraction [18]: + | Activity, RPC fraction [19]: + | membrane integrity by propidium iodide staining [20]: no evidence for compromised integrity | reduction of activity after incubation with proteinase K ([21]; 32,000 to 8,000 BU/mL): about 4 fold | activity of the RPC fraction after incubation with proteinase K ([21]; starting activity 32,000 BU/mL, read-out spot-on-lawn, 10-μL sample, RPC fraction 606 μg/mL total protein): 8,000 BU/mL | Activity, RPC fraction ([22]; ten-microliter RPC fraction): (+) | concentration of RPC fraction at which low levels of inhibition were achieved ([22]; total protein of RPC fraction): > 1,000 μg/mL | volumetric bacteriocin activity of RPC preparation ([23]; purified from CLI culture supernatant (ammonium sulfate, CIEX, RPC), resuspended in HPLC-grade H2O, BU/mL = last inhibiting dilution factor / volume spotted): 32,000 BU/mL | volumetric bacteriocin activity of RPC sample for LC-MS ([23]; purified from CLIV minimal medium supernatant (CIEX, RPC), corresponding to 0.5 μg/mL protein): 40,000 BU/mL | Activity, RPC fraction ([23]; spot-on-lawn, ten-microliter RPC fraction): + | Activity, RPC fraction ([24]; ten-microliter RPC fraction): (+) | concentration of RPC fraction at which low levels of inhibition were achieved ([24]; total protein of RPC fraction): > 1,000 μg/mL | reduction of activity after incubation with trypsin [25]: about 4 fold | CFU/mL after 24 h ([2]; RPC fraction at 400 BU/mL (lower concentration)): slightly increased CFU/mL after 24 h | decrease of CFU per milliliter after 2 h ([2]; RPC fraction at 400 BU/mL, 2x TY, 30°C, start ~10^7 CFU/mL): 4 orders of magnitude | CFU/mL after 24 h ([2]; RPC fraction at 1,060 BU/mL (high concentration)): remained at low levels of CFU/mL | decrease of CFU per milliliter after 2 h ([2]; RPC fraction at 1,060 BU/mL, 2x TY, 30°C, start ~10^7 CFU/mL): 4 orders of magnitude | effect of heat treatment on activity ([26]; 80°C for 10 min): no effect | effect of heat treatment on activity ([26]; 100°C for 10 min): no effect | change of pHluorin2 fluorescence ratio (excitation 400/480 nm) ([1]; concentrations up to 10,000 BU/mL, at least three biological replicates): did not result in a change of fluorescence ratios

cypemycin
antimicrobial activity [27]: limited to Micrococcus luteus

nisin [reference compound]
reduced number of CFU/mL after 2 h ([2]; 1.25 μg/mL, 2x TY, 30°C, start ~10^7 CFU/mL): > 4 log | change of pHluorin2 fluorescence ratio (excitation 400/480 nm) ([1]; positive controls): reduced fluorescence ratios

salinipeptins
growth inhibition [28]: inhibit growth
